Values quoted from earlier work in US20090169586A1, “STABLE PACKAGED DOSAGE FORM AND PROCESS THEREFOR” (priority 2006, published 2009).

Assays:
[1] = system: skin's protection against sunburn; settings: 24 mg taken for more than 10 weeks
[2] = system: children exposed to long-term doses of radiation; settings: 40 mg capsules twice daily for 3 months, 709 children
[3] = system: patients with long-standing non-insulin dependent diabetes mellitus (NIDDM); settings: 60 mg/day for 3 weeks, 20 NIDDM patients
[4] = system: patients with exercise-induced asthma (EIA); settings: daily dose of 64 mg, 38 patients; all placebo patients showed more than 15% FEV1 reduction

SMILES: CC1=C(/C=C/C(C)=C/C=C/C(C)=C/C=C/C=C(C)/C=C/C=C(C)/C=C/C2=C(C)CCCC2(C)C)C(C)(C)CCC1 [beta-carotene from Dunaliella, beta-carotene]
- skin's protection against sunburn [1]: double the skin's protection against sunburn
- serum markers for oxidisation [2]: reduced serum markers for oxidisation
- LDL oxidation [3]: normalised high LDL oxidation
- patients protected against EIA [4]: 53%
